“Also recorded” adds a separate entry of the source. Peptide text beside a SMILES is read from it. * marks the point of attachment. Cbz = O=C(OCc1ccccc1)*

One data set concerns primary hepatocytes. Put plainly: Western blots of primary hepatocytes transfected with Raptor cDNA, transduced with Fc or Notch1, cycloheximide. The format is cell-based, mouse. As to conditions: cycloheximide for 2-h. Here is the method: FIG. 11A-FIG. 11H: Notch induces mTorc1 complex stability. FIG. 11A: Western blots of liver proteins from 5h-fasted L-Rbpj and control mice (mTor and Actin blots reproduced from FIG. 2n), FIG. 11B: Western blot of liver protein from chow-fed, 12-week-old mice transduced with Fc or N1-IC, sacrificed at day 7, after overnight fasting. FIG. 11C: Western blots from FAO hepatoma cells transduced with either Fc or N1-IC, with or without treatment with MG132 for 4-h. FIG. 11D: Western blots of primary hepatocytes, transfected with Raptor cDNA, then transduced with Fc or Notch1 and treated for 2-h with cycloheximide. […]
We isolated and cultured primary mouse hepatocytes as described (Pajvani 2011). […] We measured fatty acid oxidation as described (Li 2011), with the following modifications: primary hepatocytes were incubated serum-free medium with 1.5% fatty-acid free BSA (Sigma) containing 0.1 mM cold oleic acid and 1 μCi 14C-oleic acid (PerkinElmer Life Sciences) for 4 h. […] Trapped 14CO2 on the alkalinized filter paper was measured as described (Li 2011). We measured lipogenesis as described (Yecies 2011), with the following modifications: hepatocytes were stimulated with 10 nM insulin in serum-free DMEM for 2 h, then labeled with 14C-acetate (PerkinElmer Life Sciences) for 2 h. […]

For a further data set, the system named is N1-IC-transduced mice. The data set can be described thus: Rapamycin treatment of Fc or N1-IC-transduced mice. As to conditions: data not shown. The format is in vivo, mouse. Here is the method: FIG. 9A-FIG. 9F: mTor inhibition prevents Notch-induced fatty liver. Data shown means±SEM. FIG. 9A: Fasn-luciferase in FAO hepatoma cells transfected with either Raptor or scrambled (scr) shRNA, transduced with either Fc (−) or N1-IC (Notch) adenovirus and treated for 16-h with 100 nM insulin. ***p<0.001 vs. Fc control, &p<0.001 vs. scrambled shRNA, #p<0.001 vs. no insulin. […]
Blood glucose was measured by glucose meter (OneTouch) and plasma insulin by ELISA (Millipore). […] Hepatic de novo lipogenesis was determined by measuring the amount of newly synthesized FA, as resolved by TLC, present in the liver 1 h after intraperitoneal injection of 1 mCi of 3H2O (Zhang 2006). Triglyceride secretion rate was measured after injection of Poloxamer 407, with serial measurement of plasma triglycerides (Li 2011).
(§1) Notch1-IC, Notch decoy (1-24), Fc and GFP adenoviruses have been described (Kitamura 2007; Funahashi 2011; Nakae 2003). We transduced primary hepatocytes or HEK 293 ceils at MOI 5 and FAO hepatoma cells at MOI 200, to achieve 90-100% infection efficiency as assessed by GFP expression. […]

The test system of the next data set is FAO hepatoma cells. Put plainly: Western blots / gene expression in FAO hepatoma cells transduced with Fc or N1-IC. Type of data set: cell-based. As to conditions: MG132 for 4-h.
Source text: FIG. 8A-FIG. 8F: Activation of hepatic Notch increases mTor, lipogenic genes, and steatosis in chow-fed mice. *p<0.05, **p<0.01, ***p<0.001 vs. Fc or GFP. Protein expression normalized to either Actin or Tubulin. Mice were 8-week-old C57Bl/6 males, unless otherwise indicated. […] FIG. 8D: Liver Western blots in mice transduced with GFP or N1-IC adenovirus, sacrificed after a 16-h fast followed by 2-h refeeding. (n=6/group). FIG. 8E: Gene expression analysis in mice transduced with GFP or N1-IC adenovirus, sacrificed after a 16-h fast followed by 2-h refeeding. (n=6/group). FIG. 8F: De novo lipogenesis in hepatocytes after transduction with GFP or N1-IC adenovirus and incubation with 10 nM insulin (triplicate wells, representative of 2 individual experiments). FIG. 8G: Hepatic triglyceride content 7-d after GFP or N1-IC transduction in 16-h fasted, 24-week-old, chow-fed Cre- and L-Rbpj mice. […] FIG. 8K-FIG. 8M: Quantitation of the phospho/total mTor, 4E-BP1 and S6k levels from the experiments in FIG. 8J. […]
as §1

For `C[C@@H]1C[C@@H]([C@H](O)CC2CC(=O)NC(=O)C2)C(=O)[C@@H](C)C1` [cycloheximide], the “effect of N1-IC on Raptor protein under protein synthesis inhibition” value in the data set with primary hepatocytes is reported as “fully reversed; also recorded: prevents”.

With `CO[C@H]1C[C@@H]2CC[C@@H](C)[C@@](O)(O2)C(=O)C(=O)N2CCCC[C@H]2C(=O)O[C@H]([C@H](C)C[C@@H]2CC[C@@H](O)[C@H](OC)C2)CC(=O)[C@H](C)/C=C(\C)[C@@H](O)[C@@H](OC)C(=O)[C@H](C)C[C@H](C)/C=C/C=C/C=C/1C` [rapamycin], in the data set on N1-IC-transduced mice, the “effect of rapamycin on glucose tolerance” value was “mild glucose intolerance”.

As for `CC(C)C[C@@H](C=O)NC(=O)[C@H](CC(C)C)NC(=O)[C@H](CC(C)C)NC(=O)OCc1ccccc1` [MG132] (Cbz-Leu-Leu-Leu-aldehyde), the “effect of N1-IC on Raptor protein under proteosomal inhibition” value with FAO hepatoma cells is recorded as “independent”.

The record behind these values is US20180303901A1, “Notch1 Decoy Antagonists Protect From Obesity-Induced Insulin Resistance and Fatty Liver” (The Trustees of Columbia University in the City of New York, priority 2013, published 2018).
